The numbers were not newly measured in PMC10814857, “Functional Classification and Interaction Selectivity Landscape of the Human SH3 Domain Superfamily” (Cells, 2024), which cites them from elsewhere.

In one series the target is PLCG1 SH3 domain. The note with it: PLCG1, SPR, Table S4; ref [75]; cited from earlier work. The protocol: (§1) page 6: […] […] […] PAK2 […] PXXXPR PXXXPR 1.05 ITC [34] TRSVI ITSN1-2 Synthetic […] Exceptional [W/F][R/W]xSx[A/ 53 ITC [29] peptide G][F/Y][L/V]xGP[ W/L] NCK1-2 N-WASP GP[…] … 147 HSQC [64] VA[…] 199 PLCG1 SOS1 AAPV[…] … 0.20mM SPR [75] AADS[…] 0.40mM AAES[…] 0.70mM AAIA[…] 0.28mM BAIAP2L1 EspFUR45 IPP[…] … 0.5 nM ITC [76] (IRTKS) 9 SORBS2- Synthetic […] Exceptional XRXGXAYLXYVX 38 ITC [29] 1 peptide Synthetic RL[…](L/P) ...

For a further series, the target named is GRB2-1 SH3 domain. The note with it: Table S4, cited from earlier work. Here is the method:
as §1

For series [1], the target named is CRK-1 SH3 domain. Also on record: method as in 3 sources, one per row (each row's own in cited_ref): ref [15] (a number printed in a supplementary file, which may have a reference list of its own: not looked up in the article's list) ||| ref [69] (a number printed in a supplementary file, which may have a reference list of its own: not looked up in the article's list) ||| ref [17] (a number printed in a supplementary file, which may have a reference list of its own: not looked up in the article's list). The note with it: CRK-1, FL, Table S4, cited from earlier work.

A further series addresses NCK1-3 SH3 domain. The note with it: NCK1-3, HSQC, Table S4; ref [64]; cited from earlier work. Here is the method: page 6: […][…] […] PAK2 […] PXXXPR PXXXPR 1.05 ITC [34] TRSVI ITSN1-2 Synthetic […] Exceptional [W/F][R/W]xSx[A/ 53 ITC [29] peptide G][F/Y][L/V]xGP[ W/L] NCK1-2 N-WASP GP[…] … 147 HSQC [64] VA[…] 199 PLCG1 SOS1 AAPV[…] … 0.20mM SPR [75] AADS[…] 0.40mM AAES[…] 0.70mM AAIA[…] 0.28mM BAIAP2L1 EspFUR45 IPP[…] … 0.5 nM ITC [76] (IRTKS) 9 SORBS2- Synthetic […] Exceptional XRXGXAYLXYVX 38 ITC [29] 1 peptide Synthetic RL[…](L/P) ...

The target of the next series is NCK1-1 SH3 domain. The note with it: NCK1-1, HSQC, Table S4; ref [64]; cited from earlier work.
The target of series [2] is bPIX (ARHGEF7) SH3 domain. Also on record: method as in 3 sources, one per row (each row's own in cited_ref): ref [33] (a number printed in a supplementary file, which may have a reference list of its own: not looked up in the article's list) ||| ref [60] (a number printed in a supplementary file, which may have a reference list of its own: not looked up in the article's list) ||| ref [34] (a number printed in a supplementary file, which may have a reference list of its own: not looked up in the article's list). The settings on record: ITC, cited from earlier work. In general terms: In ITC the heat of successive injections is recorded.

In another series the target is STAC2 SH3 domain. The note with it: STAC2, ITC, Table S4; ref [59]; cited from earlier work. The protocol:
as §1

The target of another series is GRB2-2 SH3 domain. The note with it: Table S4, cited from earlier work. Here is the method:
as §1

The target of series [3] is CRK-1 SH3 domain. Also on record: method as in ref [71] (a number printed in a supplementary file, which may have a reference list of its own: not looked up in the article's list). The settings on record: CRK-1, SPR, Table S4; ref [71]; cited from earlier work.
The target in a further series is SORBS2-1 SH3 domain. The settings on record: SORBS2-1, ITC, Table S4; ref [29]; cited from earlier work. Here is the method: as §1
The next series has as its target GRAP2-2 SH3 domain. The note with it: GRAP2-2, ITC, Table S4, cited from earlier work. The protocol:
as §1

A further series has as its target FYN SH3 domain. Also on record: method as in ref [73] (a number printed in a supplementary file, which may have a reference list of its own: not looked up in the article's list). The settings on record: HSQC, Table S4, ref [73], cited from earlier work.
The target of the next series is STAC1 SH3 domain. The settings on record: STAC1, ITC, Table S4; ref [59]; cited from earlier work. Here is the method:
as §1

For a further series, the target named is SRC SH3 domain. Also on record: method as in 3 sources, one per row (each row's own in cited_ref): ref [23] (a number printed in a supplementary file, which may have a reference list of its own: not looked up in the article's list) ||| ref [62] (a number printed in a supplementary file, which may have a reference list of its own: not looked up in the article's list) ||| ref [17] (a number printed in a supplementary file, which may have a reference list of its own: not looked up in the article's list). The settings on record: FL, cited from earlier work.

The target in series [4] is NCF1-2 (p47phox) SH3 domain. Also on record: method as in ref [14] (a number printed in a supplementary file, which may have a reference list of its own: not looked up in the article's list). The settings on record: FL, Table S4, ref [14]; cited from earlier work.
Another series has as its target ABL1 SH3 domain. Also on record: method as in ref [67] (a number printed in a supplementary file, which may have a reference list of its own: not looked up in the article's list). The note with it: ABL1, FL, Table S4; ref [67]; cited from earlier work.
For a further series, the target named is p85A SH3 domain. Also on record: method as in ref [3] (a number printed in a supplementary file, which may have a reference list of its own: not looked up in the article's list). The note with it: SPR, Table S4, ref [3]; cited from earlier work. (SPR reads the build-up and loss of mass on a sensor chip optically.)

Read-outs that look alike come from different tables or passages of the source.

As usually defined, the Kd is the equilibrium constant for the complex coming apart. Turning to AAESPPLLPPREPV [published SOS1 peptide], the Kd at PLCG1 SH3 domain is 0.7 µM.
Take AAPVPPPVPPRRRP [published SOS1 peptide]: the equilibrium dissociation constant (Kd) at PLCG1 SH3 domain is 0.2 µM.
As for PPPALPPKKR [published C3G peptide], the Kd on GRB2-1 SH3 domain (GRB2-1, FL, ref [15]) is 142 µM; at CRK-1 SH3 domain [1] (ref [15]), 1.9 µM; on CRK-1 SH3 domain [1] (ref [69]) it was 1.89 µM.
Regarding DSPPAIPPRQPT [published SOS1 peptide], the equilibrium dissociation constant (Kd) on GRB2-1 SH3 domain (GRB2-1, ITC, ref [79]) was 55 µM.
Take “SAPSGPPPPPPSVL [published N-WASP peptide]”: the dissociation constant (Kd) at NCK1-3 SH3 domain is > 1 µM; at NCK1-1 SH3 domain, > 1000 µM.
Turning to VPPPVPPRRR [published SOS1 peptide], at GRB2-1 SH3 domain (GRB2-1, FL, ref [77]), the equilibrium dissociation constant (Kd) is 5.6 µM.
Turning to “EETAPPVIAPRPDHTKSIYTRSVI [published PAK2 peptide]”, the Kd in [2] (Table S4, ref [34]) is 1.05 µM.
On to TAAPPPPPPSRP [published N-WASP peptide], for which the equilibrium dissociation constant (Kd) at NCK1-1 SH3 domain is > 1000 µM.
Turning to “NENEDKSPYPNPETTGEEDEEEPEMPVGPRPRPLSELHLKEKAVPMPE [published CaV1.2 peptide]”, on STAC2 SH3 domain, the Kd is 19.3 µM.
As to APPPPPPSRGG [published N-WASP peptide], the dissociation constant Kd on NCK1-1 SH3 domain is > 1000 µM.
With “IQPPPVNRNLKPDRK [published Gab2b peptide]”, the Kd at GRB2-2 SH3 domain (GRB2-2, ITC, ref [48]) was 17.4 µM.
As to “DVADVPPPLPLKGSVADYGNLMENQDLLGSPTPPPPPPHQRHLPPPLPSKT [published DOCK180 peptide]”, on CRK-1 SH3 domain [3], the equilibrium dissociation constant (Kd) was 0.35 µM.
In the case of LRRQAPPPPPPS [published N-WASP peptide], at NCK1-1 SH3 domain, the dissociation constant Kd was > 1000 µM.
Regarding “VAPPPPPPPPPPPG [published N-WASP peptide]”, on NCK1-3 SH3 domain, the Kd is > 1 µM.
With “LRTGEAYLRYVD [published synthetic peptide (SORBS2-1 ligand)]”, the dissociation constant (Kd) at SORBS2-1 SH3 domain is 38 µM.
In the case of APSIDRSTKPP [published SLP-76 peptide], the Kd on GRAP2-2 SH3 domain (ref [55]) was 0.675 µM.
For the sequence “PPRPLPVAPGSSKA [published PI3K-p85a peptide]”, the Kd at FYN SH3 domain was 0.05 mM.
In the case of “RLPLRPPLPHTS [published synthetic peptide (SORBS2-1 ligand)]”, on SORBS2-1 SH3 domain, the dissociation constant (Kd) was 121 µM.
In the case of “EDEPEIPLSPRPRP [published CaV1.1 peptide]”, the Kd on STAC1 SH3 domain is 3.92 µM; at STAC2 SH3 domain it was 9.31 µM.
Turning to “RALPPLPRY [published synthetic peptide (SRC ligand)]”, on SRC SH3 domain (Table S4, ref [62]), the Kd is 7.8 µM.
PSPHGTRRHLPSPP [published SOS1 peptide]: the Kd at GRB2-1 SH3 domain (GRB2-1, NMR, ref [47]) is 208 µM.
As to AAIAGPPVPPRQST [published SOS1 peptide], the dissociation constant (Kd) on PLCG1 SH3 domain is 0.28 µM.
As for “QPPSNPPPRPPAEARKKPSE [published p22phox peptide]”, the dissociation constant (Kd) in series [4] was 0.64 µM.
For the sequence AADSPPAIPPRQPT [published SOS1 peptide], on PLCG1 SH3 domain, the Kd is 0.4 µM.
As for YEVPPPVPPRRR [published SOS1 peptide], the Kd at SRC SH3 domain (Table S4, ref [17]) was 25 µM; at GRB2-1 SH3 domain (GRB2-1, FL, ref [17]), 5 µM; at CRK-1 SH3 domain [1] (ref [17]) it was 6 µM.
With PSIDRSTKP [published SLP-76 peptide], on GRAP2-2 SH3 domain (ref [57]), the Kd was 30 µM.
For PPPVPPRRRR [published SOS1 peptide], the dissociation constant (Kd) at GRB2-1 SH3 domain (GRB2-1, FL, ref [15]) was 3.5 µM; at CRK-1 SH3 domain [1] (ref [15]) it was 5.2 µM.
On to APPLPPRNRPRL [published peptide APP12], for which the equilibrium dissociation constant (Kd) at SRC SH3 domain (Table S4, ref [23]) is 1.2 µM.
For the sequence “PPRPTPVAPGSSKA [published PI3K-p85a peptide]”, the Kd at FYN SH3 domain was 0.3 mM.
In the case of IAGPPVPPRQST [published SOS1 peptide], at GRB2-1 SH3 domain (GRB2-1, ITC, ref [79]), the Kd was 82 µM.
Regarding APSYSPPPPP, the Kd on ABL1 SH3 domain is 1.5 µM.
“QPPSNPPPRPPAEAR [published p22phox peptide]”: in [4], the Kd is 8.67 µM.
Consider APTYPPPAPP, for which the Kd on ABL1 SH3 domain was 5 µM.
Regarding PKPLPRFPKK [published SOS1 peptide], the Kd on GRB2-1 SH3 domain (GRB2-1, NMR, ref [47]) was 250 µM.
For the sequence HSKRPLPPLPSL [published peptide PD1R], the equilibrium dissociation constant (Kd) at p85A SH3 domain was 40 µM.
VSLARRPLPPLP [published peptide VSL12]: the Kd at SRC SH3 domain (Table S4, ref [23]) was 0.45 µM.
Regarding “KRISPPTPKPRPPR [published PI3K-p85a peptide]”, the Kd on FYN SH3 domain (unit mM in the cell) was 0.003 mM.
Turning to PVPPPVPPRRRP [published SOS1 peptide], the dissociation constant Kd at GRB2-2 SH3 domain (GRB2-2, ITC, ref [78]) is 117 µM; on GRB2-2 SH3 domain (GRB2-2, NMR, ref [47]), 142 µM; at GRB2-1 SH3 domain (GRB2-1, ITC, ref [78]), 38.6 µM; at GRB2-1 SH3 domain (GRB2-1, NMR, ref [47]), 37 µM.
As to PGPPPPPGLPSD [published N-WASP peptide], the Kd on NCK1-3 SH3 domain was > 1 µM.
Take “SLPGPLTPVAEGQEIGMNTETSGTSAREKELSPPPGLPSKIGSISRQSSL [published ST12 peptide]”: the Kd on CRK-1 SH3 domain [3] was 0.91 µM.
With APTYSPPPPP, the Kd on ABL1 SH3 domain is 0.4 µM.
For the sequence HSKYPLPPLPSL [published peptide PD1], the Kd at p85A SH3 domain is 120 µM.
Take “KPSRPPRPSRPPPPTPRRPAS [published Itch peptide]”: the Kd in [2] (Table S4, ref [33]) was 1.59 µM.
As for NRMYPPPPPALP [published N-WASP peptide], the Kd at NCK1-3 SH3 domain was > 1 µM.
In the case of RAPTMPPPLPP [published 3BP-1 peptide], at ABL1 SH3 domain, the Kd is 34 µM.
On to ESPPLLPPREPV [published SOS1 peptide], for which the dissociation constant (Kd) on GRB2-1 SH3 domain (GRB2-1, ITC, ref [79]) is 117 µM.
As to “PAPSIDRSTKPPL [published SLP-76 peptide]”, the Kd is 9.7 µM on GRB2-2 SH3 domain (GRB2-2, ITC, ref [55]) and 0.181 µM on GRAP2-2 SH3 domain (ref [55]).
As for PKLPPKTYKREH [published SOS1 peptide], the dissociation constant Kd at GRB2-2 SH3 domain (GRB2-2, NMR, ref [47]) was 156 µM.
